{"source": "patent US20100137398A1", "about": "“USE OF HDAC INHIBITORS FOR THE TREATMENT OF GASTROINTESTINAL CANCERS” (NOVARTIS AG, priority 2007, published 2010)", "assay_type_in_all_cases": "cell-based", "key": {"[1]": {"system": "HCC2998 colon cancer cell line", "assay": "Monolayer growth inhibition assay (MTT/MTS)", "excerpt": "(§1) The MTT is a colorimetric assay to determine the cell proliferation rate. The yellow tetrazolium MTT (3-(4, 5-dimethylthiazolyl-2)-2, 5-diphenyltetrazolium bromide) is reduced, by metabolically active cells, in part by the action of dehydrogenase enzymes, to generate reducing equivalents such as NADH and NADPH. The resulting intracellular purple formazan can be solubilized and quantified by spectrophotometric means. The signals produced is directly proportional to the cell numbers. Describing the MTT assay in detail, experiments were done using six-point or 9 point drug titrations in multi-well tissue culture dishes, with outer rows left empty. Cells were suspended in complete media at densities of between 10^3 and 10^4 cell/ml, respectively, and added per well. The appropriate medium (200 μl) was then added. Twenty-four hours later, 10 μl of MTS solution, were added to one plates to determine the activity at the time of compound addition (T0). This plate was incubated at 37° for 4 hours and the optical density was measured on a Molecular Devices Thermomax at 490 nm using the Softmax program. The T0 plate served as a reference for initial activity at the beginning of the experiment.\n(§2) Compound addition began 24 hours after seeding, the same time as the T0 determination. Serial dilutions at 4-fold 2-fold, 1-fold, 0.5-fold, 0.25-fold and 0.125-fold of previously determined IC50 values of each compound were made in a 96-deep well plate with the highest concentrations on the edge of the plate. Each of the six dilutions were added in triplicate and complete medium was added to the empty outer rows, without cells. The compounds were added to the plates singly or in combination with Compound III (LBH589). The plates were incubated at 37° C. for 72 hours from seeding. The MTS solution was added (as for the T0 plate) and read four hours later. In order to analyze the data, the average value of media alone (background) was subtracted from each experimental well and the triplicate values were averaged for each compound dilution. The following formulas were used to calculate percent growth.\n(§3) If X>T0, % Growth=100×(X−T0)/(GC−T0))\n(§4) If X<T0, % Growth=100×(X−T0)/T0)\n(§5) T0=average value of T0 minus background\n(§6) GC=average value of untreated cells (in triplicate) minus background X=average value, of compound treated cells (in triplicate) minus background\n(§7) IC50 the concentration of LBH589 required to inhibit cell growth by 50% and LD50s the concentration required to reduce cell number (kill cells) to 50% the original innoculum were determined. The “% Growth” was plotted against compound concentration and used to calculate IC50s and LD50s, employing the user-defined spline function in Microsoft Excel.\n(§8) Colon cancer cell lines were treated with DMSO vehicle control or varying concentrations of LBH589 for 3 days. Cell proliferation was measured on the day of cell plating and on the third day post-treatment. IC50 and LD50 values were calculated as described above."}, "[2]": {"system": "DLD-1 colon cancer cell line", "assay": "Monolayer growth inhibition assay (MTT/MTS)", "excerpt": "as §1, §2, §3, §4, §5, §6, §7, §8"}, "[3]": {"system": "SW948 colon cancer cell line", "assay": "Monolayer growth inhibition assay (MTT/MTS)", "excerpt": "as §1, §2, §3, §4, §5, §6, §7, §8"}, "[4]": {"system": "Colo678 colon cancer cell line", "assay": "Monolayer growth inhibition assay (MTT/MTS)", "excerpt": "as §1, §2, §3, §4, §5, §6, §7, §8"}, "[5]": {"system": "HT29 colon cancer cell line", "assay": "Monolayer growth inhibition assay (MTT/MTS)", "excerpt": "as §1, §2, §3, §4, §5, §6, §7, §8"}, "[6]": {"system": "Colo205 colon cancer cell line", "assay": "Monolayer growth inhibition assay (MTT/MTS)", "excerpt": "as §1, §2, §3, §4, §5, §6, §7, §8"}, "[7]": {"system": "WiDr colon cancer cell line", "assay": "Monolayer growth inhibition assay (MTT/MTS)", "excerpt": "as §1, §2, §3, §4, §5, §6, §7, §8"}, "[8]": {"system": "LS1034 colon cancer cell line", "assay": "Monolayer growth inhibition assay (MTT/MTS)", "excerpt": "as §1, §2, §3, §4, §5, §6, §7, §8"}, "[9]": {"system": "SW1116 colon cancer cell line", "assay": "Monolayer growth inhibition assay (MTT/MTS)", "excerpt": "as §1, §2, §3, §4, §5, §6, §7, §8"}, "[10]": {"system": "LS174T colon cancer cell line", "assay": "Monolayer growth inhibition assay (MTT/MTS)", "excerpt": "as §1, §2, §3, §4, §5, §6, §7, §8"}, "[11]": {"system": "T84 colon cancer cell line", "assay": "Monolayer growth inhibition assay (MTT/MTS)", "excerpt": "as §1, §2, §3, §4, §5, §6, §7, §8"}, "[12]": {"system": "Colo320 colon cancer cell line", "assay": "Monolayer growth inhibition assay (MTT/MTS)", "excerpt": "as §1, §2, §3, §4, §5, §6, §7, §8"}, "[13]": {"system": "RKO colon cancer cell line", "assay": "Monolayer growth inhibition assay (MTT/MTS)", "excerpt": "as §1, §2, §3, §4, §5, §6, §7, §8"}, "[14]": {"system": "Colo320HSR colon cancer cell line", "assay": "Monolayer growth inhibition assay (MTT/MTS)", "excerpt": "as §1, §2, §3, §4, §5, §6, §7, §8"}, "[15]": {"system": "HT115 colon cancer cell line", "assay": "Monolayer growth inhibition assay (MTT/MTS)", "excerpt": "as §1, §2, §3, §4, §5, §6, §7, §8"}, "[16]": {"system": "C170 colon cancer cell line", "assay": "Monolayer growth inhibition assay (MTT/MTS)", "excerpt": "as §1, §2, §3, §4, §5, §6, §7, §8"}, "[17]": {"system": "SW480 colon cancer cell line", "assay": "Monolayer growth inhibition assay (MTT/MTS)", "excerpt": "as §1, §2, §3, §4, §5, §6, §7, §8"}, "[18]": {"system": "HT55 colon cancer cell line", "assay": "Monolayer growth inhibition assay (MTT/MTS)", "excerpt": "as §1, §2, §3, §4, §5, §6, §7, §8"}, "[19]": {"system": "36 colon cancer cell lines", "assay": "Monolayer growth inhibition assay, panel summary", "conditions": "3 days treatment", "excerpt": "as §1, with “Twenty-four hours later, 10 μl of MTS solution, were added to one plates to determine the activity at the time of compound addition (T0).” left out, “The T0 plate served as a reference for initial activity at the beginning of the experiment.” left out\nCompound addition began 24 hours after seeding, the same time as the T0 determination. […] The MTS solution was added (as for the T0 plate) and read four hours later. […]\nas §8"}, "[20]": {"conditions": "3 days, concentration reducing cell number to 50% of original inoculum"}, "[21]": {"conditions": "Homo sapiens, 72 h, 3 days treatment"}}}
{"smiles": "Cc1[nH]c2ccccc2c1CCNCc1ccc(/C=C/C(=O)NO)cc1", "note": "[LBH589, N-hydroxy-3-[4-[[[2-(2-methyl-1H-indol-3-yl)ethyl]-amino]methyl]phenyl]-2E-2-propenamide]", "values": [{"measurement": "LD50", "setting": "[1]; HCC2998, 3 days, concentration reducing cell number to 50% of original inoculum", "result": 154.87, "unit": "nM"}, {"measurement": "IC50", "setting": "[1]; Homo sapiens, HCC 2998, 72 h, HCC2998, 3 days treatment", "result": 29.7, "unit": "nM"}, {"measurement": "LD50", "setting": "[2]; DLD-1, 3 days, concentration reducing cell number to 50% of original inoculum", "result": 296.27, "unit": "nM"}, {"measurement": "IC50", "setting": "[2]; Homo sapiens, 72 h, DLD-1, 3 days treatment", "result": 61.4, "unit": "nM"}, {"measurement": "IC50", "setting": "[3]; Homo sapiens, 72 h, SW948, 3 days treatment", "result": 5.06, "unit": "nM"}, {"measurement": "LD50", "setting": "[3]; SW948, 3 days, concentration reducing cell number to 50% of original inoculum", "result": 34.92, "unit": "nM"}, {"measurement": "LD50", "setting": "[4]; Colo678, 3 days, concentration reducing cell number to 50% of original inoculum", "result": 45.52, "unit": "nM"}, {"measurement": "IC50", "setting": "[4]; Homo sapiens, COLO-678, 72 h, Colo678, 3 days treatment", "result": 5.6, "unit": "nM"}, {"measurement": "LD50", "setting": "[5]; HT29, 3 days, concentration reducing cell number to 50% of original inoculum", "result": 70.23, "unit": "nM"}, {"measurement": "IC50", "setting": "[5]; Homo sapiens, HT-29, 72 h, HT29, 3 days treatment", "result": 2.83, "unit": "nM"}, {"measurement": "LD50", "setting": "[6]; Colo205, 3 days, concentration reducing cell number to 50% of original inoculum", "result": 33.52, "unit": "nM"}, {"measurement": "IC50", "setting": "[6]; Homo sapiens, COLO 205, 72 h, Colo205, 3 days treatment", "result": 14.7, "unit": "nM"}, {"measurement": "LD50", "setting": "[7]; [20]", "result": 41.86, "unit": "nM"}, {"measurement": "IC50", "setting": "[7]; [21]", "result": 4.39, "unit": "nM"}, {"measurement": "IC50", "setting": "[8]; Homo sapiens, LS-1034, 72 h, LS1034, 3 days treatment", "result": 76.7, "unit": "nM"}, {"measurement": "LD50", "setting": "[8]; LS1034, 3 days, concentration reducing cell number to 50% of original inoculum", "result": 227.83, "unit": "nM"}, {"measurement": "IC50", "setting": "[9]; Homo sapiens, SW 1116, 72 h, SW1116, 3 days treatment", "result": 2.28, "unit": "nM"}, {"measurement": "LD50", "setting": "[9]; SW1116, 3 days, concentration reducing cell number to 50% of original inoculum", "result": 26.93, "unit": "nM"}, {"measurement": "LD50", "setting": "[10]; [20]", "result": 87.41, "unit": "nM"}, {"measurement": "IC50", "setting": "[10]; [21]", "result": 16.8, "unit": "nM"}, {"measurement": "IC50", "setting": "[11]; 72 h, T84, 3 days treatment", "result": 2.16, "unit": "nM"}, {"measurement": "LD50", "setting": "[11]; T84, 3 days, concentration reducing cell number to 50% of original inoculum", "result": 32.82, "unit": "nM"}, {"measurement": "LD50", "setting": "[12]; Colo320, 3 days, concentration reducing cell number to 50% of original inoculum", "result": 82.90, "unit": "nM"}, {"measurement": "IC50", "setting": "[12]; Homo sapiens, COLO 320, 72 h, Colo320, 3 days treatment", "result": 6.5, "unit": "nM"}, {"measurement": "IC50", "setting": "[13]; 72 h, 3 days treatment", "result": 5.57, "unit": "nM"}, {"measurement": "LD50", "setting": "[13]; [20]", "result": 2346.13, "unit": "nM"}, {"measurement": "LD50", "setting": "[14]; [20]", "result": ">10", "unit": "µM"}, {"measurement": "IC50", "setting": "[14]; Homo sapiens, COLO-320-HSR, 72 h, 3 days treatment", "result": 13.8, "unit": "nM"}, {"measurement": "IC50", "setting": "[15]; 72 h, HT115, 3 days treatment", "result": 3.49, "unit": "nM"}, {"measurement": "LD50", "setting": "[15]; HT115, 3 days, concentration reducing cell number to 50% of original inoculum", "result": 31.02, "unit": "nM"}, {"measurement": "LD50", "setting": "[16]; C170, 3 days, concentration reducing cell number to 50% of original inoculum", "result": 382.03, "unit": "nM"}, {"measurement": "IC50", "setting": "[16]; Homo sapiens, 72 h, C170, 3 days treatment", "result": 62.3, "unit": "nM"}, {"measurement": "IC50", "setting": "[17]; Homo sapiens, 72 h, SW480, 3 days treatment", "result": 1.48, "unit": "nM"}, {"measurement": "LD50", "setting": "[17]; SW480, 3 days, concentration reducing cell number to 50% of original inoculum", "result": 6.90, "unit": "nM"}, {"measurement": "LD50", "setting": "[18]; HT55, 3 days, concentration reducing cell number to 50% of original inoculum", "result": 334.52, "unit": "nM"}, {"measurement": "IC50", "setting": "[18]; Homo sapiens, 72 h, HT55, 3 days treatment", "result": 8.21, "unit": "nM"}, {"measurement": "IC50 values", "setting": "[19]; all 36 colon cancer cell lines", "result": "low nanomolar"}, {"measurement": "LD50", "setting": "[19]; great majority of the colon cancer cell lines (n=31)", "result": "< 1", "unit": "µM"}]}
